Measurements published in patent US9927437B2, “Treating neurodegenerative disease” (THE BRIGHAM AND WOMEN'S HOSPITAL, INC., priority 2013, dated 2018).
“Also recorded” adds a separate entry of the source.

Columns and labels:
EAE NOD mice = test: EAE in NOD mice, progressive phase (clinical score, histopathology, body weight); format: in vivo
Ly6C^high monocytes = test: Monocytes migration assay (transwell, CCL-2); format: cell-based, mouse; conditions: 1 h pre-treatment, CCL-2 50 ng/ml, 3 h
Source text: FIGS. 4a-m. B4GALT6 regulates ccl2 transcriptional activity in astrocytes. (a) Murine ccl2 promoter. (b) Luciferase activity in 293T cells transfected with the ccl2 luciferase reporter plus one of the following constructs encoding IRF-1, p65 or an empty control vector (Empty). Results are relative to secreted alkaline phosphatase activity, presented as fold induction from empty vector. Data from three independent experiments, statistical analysis by Student's t-test. (c) ChIP analysis of the interaction of NF-κB, and IRF-1 with the ccl2 promoter in primary cultured astrocytes, pre-treated with PDMP and LacCer and activated with LPS/IFNγ (as in FIG. 3), 2 hours following LPS/IFNγ induction. (d-h) Recruitment of inflammatory monocytes (defined either as of CD11b^+ Ly6C^high or CD11b^+CD45^high cells) to the CNS of EAE NOD mice treated with PDMP or vehicle, as in (FIG. 1k), analyzed by flow cytometry and presented as cell frequency (e, g) and total cell numbers (f, h). Representative data of three independent experiments. […] (i) The frequency and number of CD11b^+ Ly6C^high monocytes as determined in the CNS 10 days after the i.c.v. injection of astrocytes-specific shRNA lentivirus as in (FIG. 3j). […] (j) monocytes were pre-treated for 1 h with PDMP, LacCer, both (LacCer+PDMP), or vehicle, and monocytes chemotaxis was measured using a transwell chamber system. […]

## CCCCCCCCCC(=O)N[C@H](CN1CCOCC1)[C@H](O)c1ccccc1 [PDMP, D-threo-1-phenyl-2-decanoylamino-3-morpholino-1-propanol]
EAE NOD mice; NOD EAE, 20 mg/kg i.p. twice a day from day 40, lumbar spinal cord, Bielschowsky's silver stain
  disease progression, axonal loss: suppression of disease progression
EAE NOD mice; NOD EAE, 20 mg/kg i.p. twice a day from day 40, lumbar spinal cord, Luxol fast blue
  disease progression, demyelination: suppression of disease progression
EAE NOD mice; NOD EAE, 20 mg/kg i.p. twice a day from day 40 after EAE induction
  disease progression, clinical score: suppression of disease progression
Ly6C^high monocytes
  monocyte migration in a CCL-2 gradient: did not affect; also recorded: no significance effect

## lactosylceramide [LacCer]
EAE NOD mice; NOD mice, 10 μg per mouse i.p. every 3 days from day 35 after EAE induction
  EAE disease clinical symptoms: significant worsening of disease clinical symptoms
Ly6C^high monocytes
  monocyte migration in a CCL-2 gradient: did not affect; also recorded: no significance effect

## shB4galt6: lentivirus-delivered shRNA against b4galt6 (TRCN0000334278; SEQ ID NO:3) (guide CGATGGACTGAACAATTTATTCTCGAGAATAAATTGTTCAGTCCACG)
EAE NOD mice; NOD EAE, i.c.v. 1×10^7 IU lentivirus at day 35
  EAE disease progression: suppressed disease progression; also recorded: ameliorates disease severity
